In one experiment the test system is Mino cells. Description: Antiproliferative effect, MTS cell viability assay, Mino cells. The format is cell-based. The following applies: Homo sapiens, Mino mantle cell lymphoma cells, read-out: IC50 (anti-proliferation) Mino cells. The procedure, abridged:
(§1)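 Readout was MTS-derived formazan absorbance (490 nm) reflecting metabolically active cells. Treatment lasted 72 h over a 0–10 μM range (0.001, 0.01, 0.1, 1, 10 μM) in JeKo-1 and Mino B-cell malignancy cells.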
On the technique in general: Tetrazolium dyes change colour on reduction, which living cells bring about.

Another experiment deals with BTK (Homo sapiens, UniProt Q06187). Description: Degradation of BTK protein in Namalwa cells (Western blot; DC50, Dmax). The following applies: for DC50: read-out: DC50 (BTK degradation), concentration giving 50% reduction of BTK expression level, cell line not given; for Dmax: read-out: Dmax (BTK degradation). A general note: Immunoblotting shows a protein as a band on a membrane.

The test system of a further experiment is JeKo-1 cells. Description: Antiproliferative effect, MTS cell viability assay, JeKo-1 cells. The format is cell-based. To be noted: Homo sapiens; JeKo-1 mantle cell lymphoma cells; read-out: IC50 (anti-proliferation) JeKO-1 cells. The method, boiled down: as §1

Structures are written as SMILES. Where two headings read alike, the source gives them in different places.

Sequence of BTK (Q06187 whole entry): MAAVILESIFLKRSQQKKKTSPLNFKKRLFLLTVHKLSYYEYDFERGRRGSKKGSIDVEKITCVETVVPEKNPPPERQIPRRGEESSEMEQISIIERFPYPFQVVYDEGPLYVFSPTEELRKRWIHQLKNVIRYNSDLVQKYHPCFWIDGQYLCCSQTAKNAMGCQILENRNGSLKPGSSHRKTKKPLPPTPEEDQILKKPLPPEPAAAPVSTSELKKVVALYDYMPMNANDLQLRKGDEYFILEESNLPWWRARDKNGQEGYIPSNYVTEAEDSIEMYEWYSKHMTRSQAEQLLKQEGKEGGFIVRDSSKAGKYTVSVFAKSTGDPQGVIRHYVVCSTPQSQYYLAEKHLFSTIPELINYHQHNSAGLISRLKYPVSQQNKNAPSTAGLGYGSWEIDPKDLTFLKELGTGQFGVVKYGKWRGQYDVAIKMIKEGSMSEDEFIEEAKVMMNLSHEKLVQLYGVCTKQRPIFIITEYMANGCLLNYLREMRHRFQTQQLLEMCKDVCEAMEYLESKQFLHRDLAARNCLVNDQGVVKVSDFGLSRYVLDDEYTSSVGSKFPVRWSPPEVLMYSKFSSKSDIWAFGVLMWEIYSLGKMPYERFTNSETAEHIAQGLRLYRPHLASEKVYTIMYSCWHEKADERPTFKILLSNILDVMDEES

As for `Nc1ncnc2c1c(-c1ccc(Oc3ccccc3)cc1)nn2C1CCN(C[C@H]2CCN(C[C@H]3CCN(c4ccc5c(c4)C(=O)N(C4CCC(=O)NC4=O)C5=O)C3)C2)CC1` (stereo partly drawn) [Compound 447a, 5-((R)-3-(((R)-3-((4-(4-amino-3-(4-phenoxyphenyl)-1H-pyrazolo[3,4-d]pyrimidin-1-yl)piperidin-1-yl)methyl)pyrrolidin-1-yl)methyl)pyrrolidin-1-yl)-2-(2,6-dioxopiperidin-3-yl)isoindoline-1,3-dione], the IC50 with Mino cells (MINO) was in the range of 1000 to 10000 nM. Besides, on BTK, the DC50 (as a rule, the midpoint of the concentration-degradation curve) lay within 10 to 50 nM and the Dmax (usually the greatest extent of degradation seen) is above 90%. In the experiment with JeKo-1 cells, the IC50 lay in the range of 1000 to 10000 nM.

Take `Nc1ncnc2c1c(-c1ccc(Oc3ccccc3)cc1)nn2C1CCN(C[C@H]2CCN(C[C@@H]3CCN(c4ccc5c(c4)C(=O)N(C4CCC(=O)NC4=O)C5=O)C3)C2)CC1` (stereo partly drawn) [Compound 447b, 5-((S)-3-(((R)-3-((4-(4-amino-3-(4-phenoxyphenyl)-1H-pyrazolo[3,4-d]pyrimidin-1-yl)piperidin-1-yl)methyl)pyrrolidin-1-yl)methyl)pyrrolidin-1-yl)-2-(2,6-dioxopiperidin-3-yl)isoindoline-1,3-dione]: the IC50 in the experiment with Mino cells (MINO) was 1000 to 10000 nM. For the same compound, at BTK, the DC50 is below 10 nM and the Dmax was above 90%. For the same compound, the IC50 with JeKo-1 cells was in the range of 1000 to 10000 nM.

Consider `Nc1ncnc2c1c(-c1ccc(Oc3ccccc3)cc1)nn2C1CCN(C[C@@H]2CCN(C[C@@H]3CCN(c4ccc5c(c4)C(=O)N(C4CCC(=O)NC4=O)C5=O)C3)C2)CC1` (stereo partly drawn) [Compound 447c, 5-((S)-3-(((S)-3-((4-(4-amino-3-(4-phenoxyphenyl)-1H-pyrazolo[3,4-d]pyrimidin-1-yl)piperidin-1-yl)methyl)pyrrolidin-1-yl)methyl)pyrrolidin-1-yl)-2-(2,6-dioxopiperidin-3-yl)isoindoline-1,3-dione], for which the IC50 with Mino cells (MINO) is 1000 to 10000 nM. At BTK, the DC50 is below 10 nM and the maximal degradation (Dmax) was above 90%. Besides, the IC50 in the experiment with JeKo-1 cells lay in the range of 1000 to 10000 nM.

For the compound `Nc1ncnc2c1c(-c1ccc(Oc3ccccc3)cc1)nn2C1CCN(C[C@@H]2CCN(C[C@H]3CCN(c4ccc5c(c4)C(=O)N(C4CCC(=O)NC4=O)C5=O)C3)C2)CC1` (stereo partly drawn) [Compound 447d, 5-((R)-3-(((S)-3-((4-(4-amino-3-(4-phenoxyphenyl)-1H-pyrazolo[3,4-d]pyrimidin-1-yl)piperidin-1-yl)methyl)pyrrolidin-1-yl)methyl)pyrrolidin-1-yl)-2-(2,6-dioxopiperidin-3-yl)isoindoline-1,3-dione], the IC50 in the experiment on Mino cells (MINO) was in the range of 1000 to 10000 nM. On BTK, the 50% degradation concentration (DC50) is 10 to 50 nM and the maximal degradation (Dmax) is above 90%. For the same compound, in the experiment on JeKo-1 cells, the IC50 was 1000 to 10000 nM.

As to `Nc1ncnc2c1c(-c1ccc(Oc3ccccc3)cc1)nn2C1CCN(CC2CCN(CC3CCN(c4ccc5c(c4)CN(C4CCC(=O)NC4=O)C5=O)C3)C2)CC1` (stereo not shown) [Compound 448, 3-(5-(3-((3-((4-(4-amino-3-(4-phenoxyphenyl)-1H-pyrazolo[3,4-d]pyrimidin-1-yl)piperidin-1-yl)methyl)pyrrolidin-1-yl)methyl)pyrrolidin-1-yl)-1-oxoisoindolin-2-yl)piperidine-2,6-dione], the IC50 in the experiment with Mino cells (MINO) and with JeKo-1 cells was 1000 to 10000 nM each time. For the same compound, on BTK, the DC50 lay in the range of 10 to 50 nM. Further, the Dmax at BTK is above 90%.

`Nc1ncnc2c1c(-c1ccc(Oc3ccccc3)cc1)nn2C1CCN([C@H]2CCN(CC3CCN(c4ccc5c(c4)C(=O)N(C4CCC(=O)NC4=O)C5=O)CC3)C2)CC1` (stereo partly drawn) [Compound 449a, 5-(4-(((S)-3-(4-(4-amino-3-(4-phenoxyphenyl)-1H-pyrazolo[3,4-d]pyrimidin-1-yl)piperidin-1-yl)pyrrolidin-1-yl)methyl)piperidin-1-yl)-2-(2,6-dioxopiperidin-3-yl)isoindoline-1,3-dione]: the IC50 in the experiment with Mino cells (MINO) and in the experiment on JeKo-1 cells was below 1000 nM in each case. Moreover, the DC50 at BTK was below 10 nM. Besides, the Dmax on BTK is above 90%.

As for `Nc1ncnc2c1c(-c1ccc(Oc3ccccc3)cc1)nn2C1CCN([C@@H]2CCN(CC3CCN(c4ccc5c(c4)C(=O)N(C4CCC(=O)NC4=O)C5=O)CC3)C2)CC1` (stereo partly drawn) [Compound 449b, 5-(4-(((R)-3-(4-(4-amino-3-(4-phenoxyphenyl)-1H-pyrazolo[3,4-d]pyrimidin-1-yl)piperidin-1-yl)pyrrolidin-1-yl)methyl)piperidin-1-yl)-2-(2,6-dioxopiperidin-3-yl)isoindoline-1,3-dione], the IC50 in the experiment on Mino cells (MINO) was below 1000 nM. Further, at BTK, the DC50 is below 10 nM and the Dmax is above 90%. The IC50 in the experiment with JeKo-1 cells is below 1000 nM.

In the case of `Nc1ncnc2c1c(-c1ccc(Oc3ccccc3)cc1)nn2C1CCN(C2CCN(CC3CCN(c4ccc5c(c4)CN(C4CCC(=O)NC4=O)C5=O)CC3)C2)CC1` (stereo not shown) [Compound 450, 3-(5-(4-((3-(4-(4-amino-3-(4-phenoxyphenyl)-1H-pyrazolo[3,4-d]pyrimidin-1-yl)piperidin-1-yl)pyrrolidin-1-yl)methyl)piperidin-1-yl)-1-oxoisoindolin-2-yl)piperidine-2,6-dione], the IC50 in the experiment with Mino cells (MINO) was 1000 to 10000 nM. Moreover, at BTK, the DC50 lay in the range of 10 to 50 nM and the Dmax is above 75%. In addition, the IC50 in the experiment with JeKo-1 cells was 1000 to 10000 nM.

On to `Nc1ncnc2c1c(-c1ccc(Oc3ccccc3)cc1)nn2C1CCN(C2CCN(CC3CCN(c4ccc5c(c4)C(=O)N(C4CCC(=O)NC4=O)C5=O)C3)C2)CC1` (stereo not shown) [Compound 451, 5-(3-((3-(4-(4-amino-3-(4-phenoxyphenyl)-1H-pyrazolo[3,4-d]pyrimidin-1-yl)piperidin-1-yl)pyrrolidin-1-yl)methyl)pyrrolidin-1-yl)-2-(2,6-dioxopiperidin-3-yl)isoindoline-1,3-dione], for which, in the experiment on Mino cells (MINO), the IC50 was below 1000 nM. In addition, the “degradation of BTK protein” value on BTK (Namalwa B lymphocyte cells, various concentrations, 24 hours, Western blot) is “dose-dependent degradation”. On BTK, the 50% degradation concentration (DC50) was below 10 nM and the Dmax was above 90%. Further, the IC50 with JeKo-1 cells lay within 1000 to 10000 nM.

Consider `Nc1ncnc2c1c(-c1ccc(Oc3ccccc3)cc1)nn2C1CCN(C2CCN(CC3CCN(c4ccc5c(c4)CN(C4CCC(=O)NC4=O)C5=O)C3)C2)CC1` (stereo not shown) [Compound 452, 3-(5-(3-((3-(4-(4-amino-3-(4-phenoxyphenyl)-1H-pyrazolo[3,4-d]pyrimidin-1-yl)piperidin-1-yl)pyrrolidin-1-yl)methyl)pyrrolidin-1-yl)-1-oxoisoindolin-2-yl)piperidine-2,6-dione], for which the IC50 in the experiment on Mino cells (MINO) was below 1000 nM. Also, on BTK, the DC50 fell in the range of 10 to 50 nM and the Dmax is above 75%. Further, the IC50 in the experiment with JeKo-1 cells lay in the range of 1000 to 10000 nM.

Take `Nc1ncnc2c1c(-c1ccc(Oc3ccccc3)cc1)nn2C1CCN(CCN2CCC(CN3CCN(c4ccc5c(c4)C(=O)N(C4CCC(=O)NC4=O)C5=O)CC3)CC2)CC1` (stereo not shown) [Compound 453, 5-(4-((1-(2-(4-(4-amino-3-(4-phenoxyphenyl)-1H-pyrazolo(3,4-d)pyrimidin-1-yl)piperidin-1-yl)ethyl)piperidin-4-yl)methyl)piperazin-1-yl)-2-(2,6-dioxopiperidin-3-yl)isoindoline-1,3-dione]: the IC50 in the experiment on Mino cells fell in the range of 1000 to 10000 nM. Moreover, on BTK, the DC50 lay in the range of 10 to 50 nM and the Dmax was above 90%. Further, in the experiment on JeKo-1 cells, the IC50 lay in the range of 1000 to 10000 nM.

On to `Nc1ncnc2c1c(-c1ccc(Oc3ccccc3)cc1)nn2C1CCN(CCN2CCC(CN3CCN(c4ccc5c(c4)CN(C4CCC(=O)NC4=O)C5=O)CC3)CC2)CC1` (stereo not shown) [Compound 454, 3-(5-(4-((1-(2-(4-(4-amino-3-(4-phenoxyphenyl)-1H-pyrazolo[3,4-d]pyrimidin-1-yl)piperidin-1-yl)ethyl)piperidin-4-yl)methyl)piperazin-1-yl)-1-oxoisoindolin-2-yl)piperidine-2,6-dione], for which the IC50 in the experiment with Mino cells (MINO) was above 10000 nM. Further, on BTK, the DC50 was above 50 nM and the Dmax was above 50%. In the experiment with JeKo-1 cells, the IC50 fell in the range of 1000 to 10000 nM.
